In patent US7858635B2 (priority 2005, dated 2010):

How the values were obtained:
M4 muscarinic receptor = molecular target: T1, M4 muscarinic receptor (Homo sapiens, UniProt P08173); assay: Functional mobilization of intracellular calcium (FLIPR, Fluo-3), M4-CHO cells; type: cell-based; details: compound nos. 1-454; for Emax: read-out: M4 Efficacy; for M4 Activity: M4-CHO cells, calcium mobilization
T1 construct: expressed in transfected cells; host or cells: CHO cells (M4-CHO, under puromycin, zeocin and blasticidin selection)
T1 sequence (P08173 1-479): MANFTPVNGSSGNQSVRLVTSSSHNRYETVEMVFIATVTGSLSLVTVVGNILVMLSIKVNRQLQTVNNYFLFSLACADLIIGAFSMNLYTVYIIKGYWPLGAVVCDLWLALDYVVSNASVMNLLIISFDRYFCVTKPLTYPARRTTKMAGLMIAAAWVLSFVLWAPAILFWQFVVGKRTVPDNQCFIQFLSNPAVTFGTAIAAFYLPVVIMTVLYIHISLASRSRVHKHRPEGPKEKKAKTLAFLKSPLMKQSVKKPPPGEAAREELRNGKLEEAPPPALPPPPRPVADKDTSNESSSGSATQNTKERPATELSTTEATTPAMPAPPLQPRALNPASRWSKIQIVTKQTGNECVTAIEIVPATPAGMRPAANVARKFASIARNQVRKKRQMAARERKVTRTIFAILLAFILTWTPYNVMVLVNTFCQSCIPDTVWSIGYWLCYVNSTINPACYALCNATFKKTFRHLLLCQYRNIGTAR
Summary of the method: (§1)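 Fluo-3 read-out, ex 488/em 540 nm, 60 sec on FLIPR 3. For agonist mode, compound added directly; for inhibition, 15 min compound pre-incubation before carbachol at EC80 (added as a 3× solution), or co-application. Buffer pH 7.4 with 1 mM probenecid; DMSO 0.5%.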

M1 muscarinic receptor = molecular target: T2, M1 muscarinic receptor (Homo sapiens, UniProt P11229); assay: Functional mobilization of intracellular calcium (FLIPR, Fluo-3), M1-CHO cells; type: cell-based; details: compound nos. 1-454; for Emax: read-out: M1 Efficacy; for M1 Activity: M1-CHO cells, calcium mobilization
T2 construct: expressed in transfected cells; host or cells: CHO cells (M1-CHO, under zeocin and G418 selection)
T2 sequence (P11229 1-460): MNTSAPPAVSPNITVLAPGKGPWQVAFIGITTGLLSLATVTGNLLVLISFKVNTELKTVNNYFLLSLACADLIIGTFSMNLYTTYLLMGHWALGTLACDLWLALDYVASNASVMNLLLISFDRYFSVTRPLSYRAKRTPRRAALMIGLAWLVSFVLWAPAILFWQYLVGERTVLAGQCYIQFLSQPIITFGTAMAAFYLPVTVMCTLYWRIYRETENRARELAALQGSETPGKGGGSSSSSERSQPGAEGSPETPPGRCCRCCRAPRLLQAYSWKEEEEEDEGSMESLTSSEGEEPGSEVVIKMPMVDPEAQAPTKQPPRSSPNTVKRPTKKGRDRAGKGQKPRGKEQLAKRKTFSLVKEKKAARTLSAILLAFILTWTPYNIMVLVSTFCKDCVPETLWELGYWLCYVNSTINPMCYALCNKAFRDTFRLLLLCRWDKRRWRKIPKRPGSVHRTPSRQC
Summary of the method: as §1

[1] = 100% efficacy is the maximum response obtained with the Carbachol control

| Compound | Emax (M4 muscarinic receptor; [1]) [%] | M4 Activity (M4 muscarinic receptor) | Emax (M1 muscarinic receptor; [1]) [%] | M1 Activity (M1 muscarinic receptor) | M4 Efficacy (M4 muscarinic receptor; [1]) | M1 Efficacy (M1 muscarinic receptor; [1]) |
| --- | --- | --- | --- | --- | --- | --- |
| Fc1ccc2c(c1)C1(CCN(C[C@H]3C[C@H]4CC[C@H]3O4)CC1)CN2 [compound 300] | < 55 | + (activity was measured to be greater than or equal to 4.0 μM) | 65 to 85 | ++ (activity was measured to be between 0.7 μM and 3.0 μM) |  |  |
| O=C(O[C@H]1CCOC1)N1C2CCC1CC(N1CCC3(CC1)C(=O)Nc1ccccc13)C2 (stereo partly drawn) [compound 301] | < 55 | + (activity was measured to be greater than or equal to 4.0 μM) | < 65 | + (activity was measured to be greater than or equal to 3.0 μM) |  |  |
| CCCOC(=O)N1C2CCC1CC(N1CCC3(CC1)CN(C(=O)C1CCC1)c1ccc(F)cc13)C2 (stereo not drawn) [compound 302] | < 55 | + (activity was measured to be greater than or equal to 4.0 μM) | < 65 | + (activity was measured to be greater than or equal to 3.0 μM) |  |  |
| CCOC(=O)N1CCC(N2CCC3(CC2)CN(CC(=O)CC)c2ccc(F)cc23)CC1 [compound 303] | < 55 | + (activity was measured to be greater than or equal to 4.0 μM) | > 85 | ++ (activity was measured to be between 0.7 μM and 3.0 μM) |  |  |
| COCCOC(=O)N1CC2(CCN(C3CC4CCC(C3)N4C(=O)O[C@@H]3CCOC3)CC2)c2cc(F)ccc21 (stereo partly drawn) [compound 304] | < 55 | + (activity was measured to be greater than or equal to 4.0 μM) | 65 to 85 | +++ (activity was measured to be less than or equal to 0.7 μM) |  |  |
| CC(=O)NC1CC2(CCN(CC3CC4C=CC3C4)CC2)c2ccccc21 (stereo not drawn) [compound 305] |  | + (activity was measured to be greater than or equal to 4.0 μM) |  | + (activity was measured to be greater than or equal to 3.0 μM) | + (efficacy was calculated to be 55% or less) | + (efficacy was calculated to be 65% or less) |
| CCCOC(=O)N1CCC(CN2CCC3(CC2)CN(C(C)=O)c2ccc(C)cc23)CC1 [compound 306] | < 55 | + (activity was measured to be greater than or equal to 4.0 μM) | < 65 | + (activity was measured to be greater than or equal to 3.0 μM) |  |  |
| CCOC(=O)N1CCC(CN2CCC3(CC2)CN(C(C)=O)c2c(F)cccc23)CC1 [compound 307] | < 55 | + (activity was measured to be greater than or equal to 4.0 μM) | 65 to 85 | ++ (activity was measured to be between 0.7 μM and 3.0 μM) |  |  |
| CCOC(=O)N1C2CCC1CC(N1CCC3(CC1)CNc1ccc(F)cc13)C2 (stereo not drawn) [compound 310] | < 55 | + (activity was measured to be greater than or equal to 4.0 μM) | < 65 | ++ (activity was measured to be between 0.7 μM and 3.0 μM) |  |  |
| COCCOC(=O)N1C2CCC1CC(N1CCC3(CC1)CN(C(=O)C1CC1)c1ccc(F)cc13)C2 (stereo not drawn) [compound 311] | 55 to 70 | + (activity was measured to be greater than or equal to 4.0 μM) | 65 to 85 | +++ (activity was measured to be less than or equal to 0.7 μM) |  |  |
| C1=C[C@H]2C[C@H]1C[C@H]2CN1CCC2(CCc3ccccc32)CC1 [compound 313] | < 55 | + (activity was measured to be greater than or equal to 4.0 μM) | < 65 | + (activity was measured to be greater than or equal to 3.0 μM) |  |  |
| CCOC(=O)N1CCC(C)(CN2CCC3(CC2)C[C@H](NC(C)=O)c2ccccc23)CC1 [compound 315] | < 55 | + (activity was measured to be greater than or equal to 4.0 μM) | < 65 | + (activity was measured to be greater than or equal to 3.0 μM) |  |  |
